Test results: patent US12343334B2, “Compositions and methods for treating severe constipation” (Serleva, Inc., priority 2018, dated 2025)

Test system: Male C57BL mice with loperamide-induced constipation
Assay: Mouse model of loperamide-induced constipation
Type: in vivo
Conditions: Product 1 30 mg/kg oral gavage, 30 min after loperamide 10 mg/kg, final study day, compared to Loperamide/Vehicle
Description: Mouse Model of Loperamide-Induced Constipation
Male C57BL mice (6 to 8 weeks, 25-30 grams) were placed on high-fat diet (45% fat) and allowed to acclimate (singly housed on a 12 hr light/dark cycle) for 6 days. Loperamide was administered by oral gavage at 10 mg/kg (10% DMSO/90% of 20% SBE-β-CD in saline) for 3 consecutive days prior to study initiation.
Daily loperamide dosing was continued throughout the entire study. On the 4, day of loperamide administration, Product 1 (30 mg/kg in 10% DMSO/90% of 20% SBE-β-CD in saline) was administered 30 minutes later by oral gavage. Sequential treatment of loperamide and Product 1 (30 minutes post-loperamide dose) was continued for 2 additional days. On the final day of the study, a fourth group of animals received a single subcutaneous administration of naloxone (1 mg/kg) as a positive control.
On the final study day, the number of fecal pellets and pellet weights for each animal were recorded hourly for the 6 hours following dosing. Fecal pellet output was then recorded every other hour for the period of 6-12 hours post-dosing. Additionally, total fecal pellet count for the period of 12 to 24 hours was measured. Fecal pellets were dried for 24 hours and dry weight recorded.
Prism software (GraphPad Prism, San Diego, CA) was employed for graphs and curve fitting. Data was analyzed using a two-way ANOVA with post-hoc LSD test.

O=C(O)CC1CCC(c2ccc(-c3ccc(Nc4ccc(C(F)(F)F)nc4)cn3)cc2)CC1 (stereo not drawn) [Product 1]
significant increase: wet weights of fecal pellets (FPWW) (1-4 hours after administration, FIG. 2) | dry weights of fecal pellets (FPDW) (1-4 hours after administration, FIG. 3) | fecal pellet output (FPCO) (first 1-4 hours after administration, FIG. 1)
